Experimental findings from patent US6599499B1, “Uses of diterpenoid triepoxides as an anti-proliferative agent” (priority 1999, dated 2003) are described below.

Where only a bound is given, the exact number is not on record here.

One assay deals with Dx5 and H23 cells. In words: Growth arrest / cell cycle progression in Dx5 and H23 cells. Type of assay: cell-based, human.
For the next assay, the system named is p53 null (−/−) MEFs. In words: Cell viability of p53-/- mouse embryonic fibroblasts. The conditions noted are these: Fibroblast, read-out: reduction of cell viability. The procedure: Cell culture and luciferase assay. A549 (non-small cell lung cancer), HT-1080 (fibrosarcoma), and MCF-7 (breast cancer) cells were cultured in the appropriate media with 10% FCS supplemented with L-glutamine, penicillin, and streptomycin. p53 wild-type (+/+) and null (−/−) Mouse Embryonic Fibroblasts (MEFs) transfected with the E1A/Ras were grown in DMEM containing 15% FCS supplemented with L-glutamine, penicillin, and streptomycin. Transfections were done on MCF-7 cells using the lipofectamine Plus reagent. At 24 hours after transfection, MCF-7 cells were left untreated or treated with triptolide (20 ng/ml) or doxorubicin (100 nM) for 4, 8, and 16 hours and cells were collected for luciferase assay. Luciferase activity was measured in samples with equal protein concentration with a Luminometer (Analytical Luminescence Laboratory, San Diego, Calif.).
Cell viability assay. Cell viability was measured by an 3-(4,5-dimethylthiazol-2-yl)-2,5-diphenyltetrazolium bromide (MTT) assay as described above. Untreated or cells treated with triptolide and/or doxorubicin were harvested at the indicated times followed by the addition of MTT to the cells in a 96-well plate. Cells were solubilized with […] acidified with 0.1N HCl. The 96-plate was read at a wavelength of 590 nm on an iEMS Labsystems plate reader.

The next assay concerns HT1080 cells. Description: Apoptosis by Annexin V and Propidium Iodide staining, HT1080 cells. More on the design: unit of the concentration uncertain. The conditions noted are these: HT1080, 20 h; PG490 5 ng/ml; CPT-11 (5 µM) alone, (5 μM) in combination; PG490 pretreatment 4 h then CPT-11 16 h. Type of assay: cell-based, human. The procedure: HT1080 cells were treated as shown and harvested for analysis of apoptosis by Annexin V and Propidium Iodide staining 20 h after treatment. In experiments with a combination of PG490 and CPT-11, cells were pretreated with PG490 for 4 h followed by the addition of CPT-11 for 16 h.

In a further assay the test system is p53 mRNA. Description: p53 mRNA by Northern blot in HT1080 cells. It counts as cell-based, human. The procedure: Northern Blot Analysis. RNA was prepared from HT1080 cells using RNeasy Mini Kit from Qiagen Inc. (Valencia, Calif.). cDNAs for Northern blot analysis for p21 and p53 were prepared using RT-PCR with […] of total RNA. The following primer pairs were used: p53, (SEQ ID NO:11) 5′-[…]-3′ and (SEQ ID NO:12) 5′-[…]-3′; p21, (SEQ ID NO:13) 5′-[…]-3′ and (SEQ ID NO:14) 5′-[…]-3′; and glyceraldehyde-3-phosphate dehydrogenase, (SEQ ID NO:15) 5′-[…]-3′ and 5′-(SEQ ID NO:16) […]-3′.

Assay [1] deals with H23 (non-small cell lung cancer) cell line. Description: cells. The procedure:
(§1) Cells and Transfections. H23 (non-small cell lung cancer) and ZR-75 (breast cancer) cell lines were purchased from ATCC. The Bcl-2 expression vector was provided by Fred Hutchinson Cancer Research Center, Seattle, Wash. MES-SA and Dx5 cell lines were provided by Branimir Sikic (Stanford University). Cells were cultured in the appropriate medium with 10% FCS supplemented with L-glutamine, penicillin and streptomycin. To examine the effect of Bcl-2 on cell survival, the Bcl-2 expression vector or the vector alone was co-transfected with a β galactosidase expression vector (Invitrogen, Carlsbad, Calif.) at a 5:1 ratio using lipofectamine plus (GIBCO BRL, Gaithersburg, Md.) into Dx5 cells. After 36 h cells were stained with 5-bromo4-chloro-3-indolyl […]-D-galactopyranoside (X-gal). Cell survival was calculated as number of total cells-blue cells/total number of cells in a 90 mm^2 area from duplicate plates and expressed as the mean ±S.D.
(§2) Cell death reagents and assays. Cell viability was measured by an MTT assay as recently described (Lee et al. (1999) J. Biol. Chem. 274:13451-13455. z-VAD-fluoromethylketone (z-VAD.fmk) was obtained from Alexis Biochemicals, San Diego, Calif. The effect of z-VAD.fmk on cell viability was analyzed by annexin and propidium iodide staining followed by FACS analysis according to the manufacturer's protocol (Clontech Laboratories, Palo Alto, Calif.). The analysis of apoptosis in histologic sections was done by terminal deoxynucleotidyl transferase (TdT)-mediated d-UTP nick end labeling (TUNEL) of slides from paraffin sections of day 3 tumors harvested from the mice 24 h after the second of two daily treatments with PG490-88 or saline. TUNEL staining was done according to the manufacturer's protocol (Boehringer Mannheim, Indianapolis, Ind.) and then the histology slides were counterstained with methyl green. DNA was isolated from cells for analysis of internucleosomal DNA laddering followed by agarose gel electrophoresis and ethidium bromide staining.
(§3) In FIG. 1A, ZR-75 (breast cancer), H23 (non-small cell lung cancer) and Dx5 (MDR uterine sarcoma) cell lines were treated with PG490 at dosages shown and harvested 48 h later for analysis of cell viability by an MTT assay. Data is the mean of three experiments ±S.D. In FIG. 1B, DNA was isolated from untreated or PG490-treated cells 16 h after the addition of PG490 followed by agarose gel electrophoresis and ethidium bromide staining.

The subject of assay [2] is ZR-75 (breast cancer) cell line. In words: cells. The conditions noted are these: ZR75, 48 h. The method, then:
as §1, §2, §3

Assay [3] concerns Dx5 (MDR uterine sarcoma) cell line. In words: cells. The procedure:
as §1, §2, §3

In assay [4] the test system is HT-29 human colon cancer cell line tumors. Description: Nude mouse xenograft, established HT-29 colon cancer tumors. It counts as in vivo, nude mice. The procedure: HT-29 tumor cells grown in tissue culture were harvested and implanted intradermally on the backs of nude mice. Tumor size was monitored by measuring the dimensions of each tumor and calculating tumor volume with a formula. […] PG490-88 treatment at 0.25 mg/kg was administered daily i.p. 5 days per week for 2 weeks. Navelbine at 10 mg/kg was given i.v. on days 0 and 7. Mice in the combination treatment group received PG490-88 i.p. and Navelbine i.v. at the appropriate times. The treatments were given to mice at 100 μl per 10 g of mouse body weight. Tumor dimensions were measured periodically for calculation of tumor volumes. […] The data are presented as mean percent change in tumor volume from day 0 for each treatment group. Toxicity of the treatment was monitored by weighing the mice daily 5 days per week. In FIG. 8, a comparison is provided for tumor volumes on Days 0 and 14. Tumor dimensions were measured periodically for calculation of tumor volumes, and the final determinations were made on day 14.

With `CC(C)[C@]12O[C@H]1[C@@H]1O[C@]13[C@]1(O[C@H]1C[C@H]1C4=C(CC[C@@]13C)C(=O)OC4)[C@@H]2O` [PG490, triptolide], the “growth arrest / cell cycle progression” value in the assay on Dx5 and H23 cells is reported as “did not cause growth arrest or significantly affect cell cycle progression”. Further, in the assay with p53 null (−/−) MEFs, the cytotoxicity at 0.005 µg/mL is 15%. The cytotoxicity at 0.01 µg/mL in the assay on p53 null (−/−) MEFs was 50%; in assay [1] (Homo sapiens, NCI-H23, 48 h, read-out: decrease in cell viability), 65 to 70%; in assay [2] (read-out: decrease in cell viability), 24%; in assay [3] (Homo sapiens, 48 h, read-out: decrease in cell viability) it was 65 to 70%. For the same compound, in the assay with HT1080 cells, the “Apoptotic Cells (%)” value turned out to be 13.5%. The “level of p53 mRNA” value in the assay with p53 mRNA is given as “not affected”. The cytotoxicity at 0.02 µg/mL in assay [1] (Homo sapiens, NCI-H23, 48 h, read-out: reduction of cell viability) was above 80%; in assay [2] (read-out: reduction of cell viability), above 80%; in assay [3] (Homo sapiens, 48 h, read-out: reduction of cell viability), above 80%. Further, the “cell death, % of cells” value in assay [1] (mutant p53 lung cancer cell line) is on record as “over 80%”. In addition, in assay [3], the “difference in sensitivity between Dx5 cell line and parent MES-SA cell line” value was “No significant difference”.

Consider `CC(C)[C@]12O[C@H]1[C@@H]1O[C@]13[C@]1(O[C@H]1C[C@H]1C4=C(CC[C@@]13C)C(=O)OC4)[C@@H]2OC(=O)CCC(=O)[O-].[Na+]` [PG490-88, 14-succinyl triptolide sodium salt], for which the “increase in tumor volume from day 0 by day 14” value in assay [4] (PG490-88 0.25 mg/kg i.p. 5 days per week for 2 weeks, Navelbine 10 mg/kg i.v. days 0 and 7) stood at 238%. Further, in assay [4] (baseline at grouping, before treatment), the “Day 0 Tumor Volume (mm^3) Mean” value is listed as 109 mm^3.
